Data published in the supplement of paper PMC10307832.

Columns and labels:
Assay in all cases: relative viability (nuclei count vs DMSO), 5 days (fraction); higher = more cells survive
[1] = compound: CC(C)(C)c1cc(NC(=O)Nc2ccc(-c3cn4c(n3)sc3cc(OCCN5CCOCC5)ccc34)cc2)no1 [Quizartinib] + CCNC(=O)c1noc(-c2cc(C(C)C)c(O)cc2O)c1-c1ccc(CN2CCOCC2)cc1 [Luminespib] (partner 0.01 µM)
Method in brief: (§1)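 Lung cancer cell lines were pin-tool dosed in 1536-well plates on the day after seeding, with either a lone drug or a fixed anchor-drug dose plus five library-drug doses (not always all listed) in √10 steps. Nuclei were counted on 4× images after 5 days. Relative viability is the ratio of treated-well to vehicle-well nuclei counts, with each value a median of duplicate plates.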

[2] = compound: CC(C)(C)c1cc(NC(=O)Nc2ccc(-c3cn4c(n3)sc3cc(OCCN5CCOCC5)ccc34)cc2)no1 [Quizartinib] + N=C(N)NC(=N)NCCc1ccccc1 [Phenformin] (partner 250 µM)
Method in brief: as §1

[3] = compound: CC(C)(C)c1cc(NC(=O)Nc2ccc(-c3cn4c(n3)sc3cc(OCCN5CCOCC5)ccc34)cc2)no1 [Quizartinib] + Nc1ncn([C@H]2C[C@H](O)[C@@H](CO)O2)c(=O)n1 [Decitabine] (partner 2 µM)
Method in brief: as §1

[4] = compound: COCC[n+]1c2c(n(Cc3cnccn3)c1C)C(=O)c1ccccc1C2=O [YM155] + C[C@]1(O)C[C@@H](c2nc(-c3ccc4ccc(-c5ccccc5)nc4c3)c3c(N)nccn32)C1 [Linsitinib] (partner 1 µM)
Method in brief: as §1

Cell Line | relative viability ([1]; first compound 0.001 µM) | relative viability ([1]; first compound 0.003162 µM) | relative viability ([1]; first compound 0.01 µM) | relative viability ([1]; first compound 0.03162 µM) | relative viability ([1]; first compound 0.1 µM) | relative viability ([2]; first compound 0.001 µM) | relative viability ([2]; first compound 0.003162 µM) | relative viability ([2]; first compound 0.01 µM) | relative viability ([2]; first compound 0.03162 µM) | relative viability ([2]; first compound 0.1 µM) | relative viability ([3]; first compound 0.001 µM) | relative viability ([3]; first compound 0.003162 µM) | relative viability ([3]; first compound 0.01 µM) | relative viability ([3]; first compound 0.03162 µM) | relative viability ([3]; first compound 0.1 µM) | relative viability ([4]; first compound 0.002 µM) | relative viability ([4]; first compound 0.006325 µM) | relative viability ([4]; first compound 0.02 µM) | relative viability ([4]; first compound 0.06325 µM)
NCI-H1755 | 0.473 | 0.243 | 0.555 | 0.459 | 0.39 | 0.58 | 0.665 | 0.609 | 0.652 | 0.672 | 0.59 | 0.676 | 0.71 | 0.722 | 0.734 | 0.972 | 1.03 | 0.974 | 0.976
NCI-H1792 | – | 0.484 | 0.452 | 0.321 | 0.444 | 0.259 | 0.2 | 0.244 | 0.346 | 0.243 | 0.459 | 0.502 | 0.598 | 0.449 | 0.577 | 0.507 | 0.548 | 0.552 | 0.626
NCI-H1793 | 0.161 | 0.171 | 0.467 | 0.174 | 0.159 | 0.361 | 0.338 | 0.385 | 0.317 | 0.37 | 0.543 | 0.404 | 0.534 | 0.534 | 0.466 | – | 0.639 | 0.886 | 0.483
NCI-H1915 | 0.786 | 0.714 | 0.828 | 0.829 | 0.815 | 0.345 | 0.374 | 0.408 | 0.353 | 0.38 | 0.23 | 0.252 | 0.279 | 0.263 | 0.267 | 1.12 | 1.05 | 1.1 | 1.01
NCI-H1944 | 0.757 | 0.804 | 0.774 | 0.727 | 0.722 | 0.206 | 0.209 | 0.182 | 0.192 | 0.173 | 0.38 | 0.389 | 0.499 | 0.419 | 0.399 | 1.14 | 1.15 | 1.19 | 1.32
NCI-H1975 | 0.166 | 0.273 | 0.164 | 0.212 | 0.202 | 0.395 | 0.406 | 0.476 | 0.399 | 0.404 | 0.361 | 0.368 | 0.632 | 0.379 | 0.358 | 1.03 | 1.06 | 0.861 | 0.842
NCI-H1993 | 0.862 | 1.03 | 0.965 | 0.844 | 0.692 | 0.478 | 0.48 | 0.523 | 0.441 | 0.625 | 0.564 | 0.673 | 0.624 | 0.632 | 0.615 | 0.678 | 0.701 | 0.777 | 0.697
NCI-H2009 | 0.915 | 1.01 | 1.07 | 0.967 | 1.03 | 0.464 | 0.48 | 0.504 | 0.44 | 0.174 | 0.408 | 0.295 | 0.396 | 0.373 | 0.443 | 1.2 | 1.25 | 1.13 | 0.217
NCI-H2023 | 0.73 | 0.664 | 0.759 | – | 0.624 | 0.347 | 0.378 | 0.372 | – | 0.312 | 0.22 | 0.198 | 0.266 | 0.157 | 0.214 | 0.744 | 0.699 | 0.659 | 0.305
NCI-H2085 | 0.403 | 0.391 | 0.454 | 0.419 | 0.393 | 0.631 | 0.648 | 0.753 | 0.673 | 0.574 | 0.521 | 0.536 | 0.58 | 0.544 | 0.583 | 0.822 | 0.743 | 0.852 | 0.517
NCI-H2087 | – | 0.206 | 0.174 | 0.177 | 0.156 | – | 0.429 | 0.458 | 0.369 | 0.516 | 0.257 | 0.238 | 0.332 | 0.249 | 0.287 | 0.979 | 0.741 | 0.861 | 0.868
NCI-H2126 | 0.844 | 0.828 | 0.798 | – | 1.11 | 0.518 | 0.58 | 0.534 | – | 0.576 | 0.623 | 0.519 | 0.693 | 0.557 | 0.592 | 0.704 | 0.722 | 0.704 | 0.771
NCI-H2347 | 0.335 | 0.51 | 0.41 | 0.495 | 0.624 | 0.268 | 0.359 | 0.461 | 0.395 | 0.497 | 0.578 | 0.586 | 0.65 | 0.619 | 0.59 | 0.965 | 0.93 | 1.1 | 0.618
NCI-H2405 | 0.641 | 0.747 | 0.562 | 0.75 | 0.724 | 0.42 | 0.414 | 0.402 | 0.407 | 0.383 | 0.723 | 0.72 | 0.789 | 0.737 | 0.87 | 0.952 | 0.755 | 0.83 | 0.469
NCI-H3122 | 0.0909 | 0.0886 | 0.079 | 0.106 | 0.112 | – | 0.377 | 0.381 | – | 0.359 | 0.382 | 0.354 | 0.524 | 0.459 | 0.417 | 0.97 | 1 | 0.993 | 1.09
PC-3 [JPC-3] | 0.556 | 0.676 | 0.808 | 0.733 | 0.724 | 0.453 | 0.466 | 0.469 | 0.481 | 0.506 | 0.837 | 0.843 | 0.841 | 0.862 | 0.831 | 0.995 | 0.927 | 0.995 | 0.995
PC-14 | 0.181 | 0.168 | 0.164 | – | 0.127 | 0.493 | 0.698 | 0.571 | 0.394 | 0.978 | 0.218 | 0.198 | 0.225 | 0.144 | 0.324 | 0.967 | 0.984 | 0.981 | 0.993
RERF-LC-KJ | 1.12 | 1.19 | 1.38 | 0.96 | 1.12 | 0.394 | 0.397 | 0.424 | 0.359 | 0.315 | 0.628 | 0.73 | 0.694 | 0.429 | 0.628 | 0.859 | 0.878 | 0.923 | 0.864
SK-LU-1 | 0.205 | 0.191 | 0.212 | 0.201 | 0.232 | 0.482 | 0.504 | 0.625 | 0.451 | 0.549 | 0.592 | 0.631 | 0.756 | 0.717 | 0.66 | 1.08 | 1.04 | 1.21 | 0.708
SK-MES-1 | 0.736 | 0.789 | 0.541 | – | 0.646 | 0.593 | 0.636 | 0.677 | – | 0.612 | 0.414 | 0.325 | 0.446 | – | 0.322 | 1.12 | 1.07 | 1.12 | 0.964
SW 1573 | 0.163 | 0.21 | 0.164 | – | 0.255 | 0.355 | 0.369 | 0.397 | – | 0.367 | 0.513 | 0.476 | 0.67 | – | 0.625 | 0.88 | 0.939 | 0.769 | 0.686
UMC-11 | – | 0.954 | 1.13 | 1.02 | 1.14 | – | 0.255 | 0.307 | 0.268 | 0.212 | – | 0.708 | 0.638 | 0.485 | 0.691 | 0.993 | 1.05 | 1.02 | 1.03
